Experimental data published in patent US11952330B2, “Antibiotic ammonium compounds and methods for the treatment of bacterial infections” (priority 2019, dated 2024).

Assays:
S. aureus = experiment: MIC by broth dilution, S. aureus; assay type: cell-based; conditions: Staphylococcus aureus; Mueller-Hinton broth, overnight 37° C.; Table 1; read-out: MIC (μg/mL) S. aureus
Procedure: (§1) The antibacterial efficacy of the ammonium compounds was assessed. Minimum inhibitory concentrations (MICs) were determined by broth dilution method. Dilutions of each compound, ranging from 1 μg/mL to 256 μg/mL (final concentrations) were prepared in Mueller-Hinton broth. Compound dilutions were added to wells of a 96-well plate, with the concentration of the compound increasing 2-fold by row. Each well contained 5×10^5 CFU/ml of target bacterium in a total volume of 100 μl. Plates were incubated overnight at 37° C. The following day, plates were evaluated for a visual change in growth to determine the MIC. The concentration value corresponding to the first row that no longer had visible bacterial growth, as evaluated by turbidity in the wells, was recorded as the MIC. MIC values were representative of at least biological duplicates, each made up of technical triplicates. The antibacterial efficacy of ammonium compounds in the presence of human plasma was assessed. Minimum inhibitory concentrations (MICs) were determined by broth dilution method. Dilutions of each compound, ranging from 1 μg/mL to 256 μg/mL (final concentrations) were prepared in Mueller-Hinton broth. For the plasma containing samples, compound dilutions were made in Mueller-Hinton broth and supplemented with 5% (final %) human plasma (esterases). Compound dilutions were added to wells of a 96-well plate, with the concentration of the compound increasing 2-fold by row. Each well contained 5×10^5 CFU/mL of target bacterium in a total volume of 100 μL. Plates were incubated overnight at 37° C. The following day, plates were evaluated for a visual change in growth to determine the MIC. The concentration value corresponding to the first row that no longer had visible bacterial growth, as evaluated by turbidity in the wells, was recorded as the MIC. MIC values were representative of at least biological duplicates, each made up of technical triplicates.

A. baumannii = experiment: MIC by broth dilution, A. baumannii; assay type: cell-based; conditions: Acinetobacter baumannii; Mueller-Hinton broth, overnight 37° C.; Table 1; read-out: MIC (μg/mL) A. baumannii
Procedure: as §1

SMILES	MIC (S. aureus)	MIC (A. baumannii)
CCCCCCCCOc1ccccc1C(=O)Nc1ccc(C(=O)OCC[N+](CC)(CC)CCCCc2ccccc2)cc1.[Br-] [Compound 44, N,N-Diethyl-N-(2-((4-(2-(octyloxy)benzamido)benzoyl)oxy)ethyl)-4-phenylbutan-1-aminium bromide]	< 3 µg/mL	3 to 30 µg/mL
CCCCCCCCOc1ccccc1C(=O)Nc1ccc(C(=O)OCC[N+](CC)(CC)Cc2ccc(C(F)(F)F)cc2)cc1.[Br-] [Compound 41, N,N-Diethyl-2-((4-(2-(octyloxy)benzamido)benzoyl)oxy)-N-(4-(trifluoromethyl)-benzyl)ethan-1-aminium bromide]	< 3 µg/mL	> 30 µg/mL
CCCCCCCCOc1ccccc1C(=O)Nc1ccc(C(=O)OCC[N+](C)(CC)CC)c(F)c1.[Br-] [Compound 90, N,N-Diethyl-2-((2-fluoro-4-(2-(octyloxy)benzamido)benzoyl)oxy)-N-methylethan-1-aminium bromide]	3 to 30 µg/mL	3 to 30 µg/mL
CCCCCCCOc1ccccc1C(=O)Nc1ccc(C(=O)NC2CC[N+](CC)(CCC)CC2)cc1.[Br-] (stereo not shown) [Compound 85, 1-Ethyl-4-(4-(2-(heptyloxy)benzamido)benzamido)-1-propylpiperidin-1-ium bromide]	3 to 30 µg/mL	> 30 µg/mL
CCCC(CCC)Oc1ccccc1C(=O)Nc1ccc(C(=O)OCC[N+](C)(CC)CC)cc1.[Br-] [Compound 96, N,N-Diethyl-2-((4-(2-(heptan-4-yloxy)benzamido)benzoyl)oxy)-N-methylethan-1-aminium bromide]	3 to 30 µg/mL	> 30 µg/mL
CCCCCCCCOc1cc(OCCCCCCCC)cc(C(=O)Nc2ccc(C(=O)OCC[N+](C)(CC)CC)cc2)c1.[Br-] [Compound 18, 2-((4-(3,5-Bis(octyloxy)benzamido)benzoyl)oxy)-N,N-diethyl-N-methylethan-1-aminium bromide]	> 30 µg/mL	> 30 µg/mL
CCCCCCCCOc1ccccc1C(=O)Nc1ccc(C(=O)N2CC[N+](C)(CC)CC2)cc1.[Br-] [Compound 54, 1-Ethyl-1-methyl-4-(4-(2-(octyloxy)benzamido)benzoyl)piperazin-1-ium bromide]	> 30 µg/mL	> 30 µg/mL
CCCCCCCOc1ccccc1C(=O)Nc1ccc(S(=O)(=O)NCC[N+](CC)(CC)CCCC)cc1.[Br-] [Compound 93, N,N-Diethyl-N-(2-((4-(2-(heptyloxy)benzamido)phenyl)sulfonamido)ethyl)butan-1-aminium bromide]	3 to 30 µg/mL	> 30 µg/mL
CCCCCCCCOc1ccccc1C(=O)Nc1ccc(S(=O)(=O)NCC[N+](CC)(CC)CCC)cc1.[Br-] [Compound 82, N,N-Diethyl-N-(2-((4-(2-(octyloxy)benzamido)phenyl)sulfonamido)ethyl)propan-1-aminium bromide]	3 to 30 µg/mL	3 to 30 µg/mL
CCCCCCCCOc1ccccc1C(=O)Nc1ccc(C(=O)OCC[N+](C)(CC)CC)cc1F.[Br-] [Compound 91, N,N-Diethyl-2-((3-fluoro-4-(2-(octyloxy)benzamido)benzoyl)oxy)-N-methylethan-1-aminium bromide]	3 to 30 µg/mL	> 30 µg/mL
CCCCCCCOc1ccccc1C(=O)Nc1ccc(C(=O)NCC[N+](C)(CC)CC)cc1.[Br-] [Compound 77, N,N-Diethyl-2-(4-(2-(heptyloxy)benzamido)benzamido)-N-methylethan-1-aminium bromide]	3 to 30 µg/mL	> 30 µg/mL
CCCCCCCCOc1ccccc1C(=O)Nc1ccc(C(=O)OCC[N+]2(C)CCCC2)cc1.[Br-] [Compound 52, 1-Methyl-1-(2-((4-(2-(octyloxy)benzamido)benzoyl)oxy)ethyl)pyrrolidin-1-ium bromide]	3 to 30 µg/mL	> 30 µg/mL
CCCCCCCCOc1ccccc1C(=O)Nc1ccc(C(=O)NC2CC[N+](CC)(CCC)CC2)cc1.[Br-] (stereo not shown) [Compound 84, 1-Ethyl-4-(4-(2-(octyloxy)benzamido)benzamido)-1-propylpiperidin-1-ium bromide]	3 to 30 µg/mL	> 30 µg/mL
CCCCCCCCOc1ccccc1C(=O)Nc1ccc(C(=O)OC2CC[N+](CC)(CCC)CC2)cc1.[Br-] (stereo not shown) [Compound 57, 1-Ethyl-4-((4-(2-(octyloxy)benzamido)benzoyl)oxy)-1-propylpiperidin-1-ium bromide]	3 to 30 µg/mL	3 to 30 µg/mL
CCCCCCCCOc1ccccc1C(=O)Nc1ccc(C(=O)OCC[N+](CC)(CC)CC2CCCC2)cc1.[Br-] [Compound 61, N-(Cyclopentylmethyl)-N,N-diethyl-2-((4-(2-(octyloxy)benzamido)benzoyl)oxy)-ethan-1-aminium bromide]	< 3 µg/mL	3 to 30 µg/mL
CCCCCCCOc1ccccc1C(=O)Nc1ccc(C(=O)NC2CC[N+](C)(CC)CC2)cc1.[Br-] (stereo not shown) [Compound 81, 1-Ethyl-4-(4-(2-(heptyloxy)benzamido)benzamido)-1-methylpiperidin-1-ium bromide]	> 30 µg/mL	> 30 µg/mL
CCCCCCCOc1ccccc1C(=O)Nc1ccc(C(=O)NC2CC[N+](CCC)(CCC)CC2)cc1.[Br-] [Compound 76, 4-(4-(2-(Heptyloxy)benzamido)benzamido)-1,1-dipropylpiperidin-1-ium bromide]	3 to 30 µg/mL	> 30 µg/mL
CCCCCCCOc1ccccc1C(=O)Nc1ccc(C(=O)NC2CC[N+](C)(CCC)CC2)cc1.[Br-] (stereo not shown) [Compound 73, 4-(4-(2-(Heptyloxy)benzamido)benzamido)-1-methyl-1-propylpiperidin-1-ium bromide]	3 to 30 µg/mL	> 30 µg/mL

Continued, values first:

MIC (S. aureus)	MIC (A. baumannii)	SMILES
3 to 30 µg/mL	> 30 µg/mL	CCCCCCCCC[N+](CC)(CC)CCOC(=O)c1ccc(NC(=O)c2ccccc2OCCCCCCCC)cc1.[Br-] [Compound 30, N,N-Diethyl-N-(2-((4-(2-(octyloxy)benzamido)benzoyl)oxy)ethyl)nonan-1-aminium bromide]
3 to 30 µg/mL	3 to 30 µg/mL	CCCCCCCCOc1ccccc1C(=O)Nc1ccc(C(=O)OCC[N+](CC)(CC)CC2CC2)cc1.[Br-] [Compound 60, N-(Cyclopropylmethyl)-N,N-diethyl-2-((4-(2-(octyloxy)benzamido)benzoyl)oxy)-ethan-1-aminium bromide]
< 3 µg/mL	3 to 30 µg/mL	CCCCCCCCOc1ccccc1C(=O)Nc1ccc(C(=O)OCC[N+](CC)(CC)CCCCC)cc1.[Br-] [Compound 35, N,N-Diethyl-N-(2-((4-(2-(octyloxy)benzamido)benzoyl)oxy)ethyl)pentan-1-aminium bromide]
3 to 30 µg/mL	> 30 µg/mL	CCCCCCCCOc1cc(F)ccc1C(=O)Nc1ccc(C(=O)OCC[N+](C)(CC)CC)cc1.[Br-] [Compound 87, N,N-Diethyl-2-((4-(4-fluoro-2-(octyloxy)benzamido)benzoyl)oxy)-N-methylethan-1-aminium bromide]
< 3 µg/mL	> 30 µg/mL	CCCCCCCCCCCCCOc1ccccc1C(=O)Nc1ccc(C(=O)OCC[N+](C)(CC)CC)cc1.[Br-] [Compound 27, N,N-Diethyl-N-methyl-2-((4-(2-(tridecyloxy)benzamido)benzoyl)oxy)ethan-1-aminium bromide]
< 3 µg/mL	3 to 30 µg/mL	CCCCCCCCOc1ccc(F)cc1C(=O)Nc1ccc(C(=O)OCC[N+](C)(CC)CC)cc1.[Br-] [Compound 86, N,N-Diethyl-2-((4-(5-fluoro-2-(octyloxy)benzamido)benzoyl)oxy)-N-methylethan-1-aminium bromide]
3 to 30 µg/mL	> 30 µg/mL	CCCCCCOc1ccccc1C(=O)Nc1ccc(C(=O)OCC[N+](C)(CC)CC)cc1.[Br-] [Compound 21, N,N-Diethyl-2-((4-(2-(hexyloxy)benzamido)benzoyl)oxy)-N-methylethan-1-aminium bromide]
< 3 µg/mL	> 30 µg/mL	CCCCCCCCCC[N+](CC)(CC)CCOC(=O)c1ccc(NC(=O)c2ccccc2OCCCCCCCC)cc1.[Br-] [Compound 48, N,N-Diethyl-N-(2-((4-(2-(octyloxy)benzamido)benzoyl)oxy)ethyl)decan-1-aminium bromide]
3 to 30 µg/mL	> 30 µg/mL	CCCCCCCCOc1ccccc1C(=O)Nc1cccc(C(=O)OCC[N+](C)(CC)CC)c1.[Br-] [Compound 12, N,N-Diethyl-N-methyl-2-((3-(2-(octyloxy)benzamido)benzoyl)oxy)ethan-1-aminium bromide]
3 to 30 µg/mL	> 30 µg/mL	CCCCCCCCCCCOc1ccccc1C(=O)Nc1ccc(C(=O)OCC[N+](C)(CC)CC)cc1.[Br-] [Compound 25, N,N-Diethyl-N-methyl-2-((4-(2-(undecyloxy)benzamido)benzoyl)oxy)ethan-1-aminium bromide]
3 to 30 µg/mL	> 30 µg/mL	CCCCCCCCCCCCOc1ccccc1C(=O)Nc1ccc(C(=O)OCC[N+](C)(CC)CC)cc1.[Br-] [Compound 26, 2-((4-(2-(Dodecyloxy)benzamido)benzoyl)oxy)-N,N-diethyl-N-methylethan-1-aminium bromide]
